Results reported in ChEMBL document CHEMBL1123685, “Synthesis and antiviral activity of various 3'-azido, 3'-amino, 2',3'-unsaturated, and 2',3'-dideoxy analogues of pyrimidine deoxyribonucleosides against retroviruses” (1987).

Experiments:
Type in all cases: functional
[1] = system: Human immunodeficiency virus 1; assay: Activity against HTLV-III/LAV[…], was determined in vitro.; conditions: read-out: ED50 (the source's name)
[2] = system: Moloney murine leukemia virus; assay: In vitro inhibitory activity against Moloney murine leukemia virus (M-MULV) replication, a mammalian T-lymphotropic retrovirus; conditions: read-out: ED50 (the source's name)
[3] = system: Moloney murine leukemia virus; assay: Compound was tested against Moloney murine leukemia virus (M-MULV) in 3T3 cells, at a concentration of 10 uM; conditions: NIH3T3

Row | Structure (SMILES) | EC50 [1] [µM] | EC50 [2] [µM] | inhibition at 10 µM [3] [%]
1 | [N-]=[N+]=N[C@H]1C[C@H](n2cc(Br)c(=O)[nH]c2=O)O[C@@H]1CO | 2.3 | 1.5 | –
2 | N[C@H]1C[C@H](n2cc(C(F)(F)F)c(=O)[nH]c2=O)O[C@@H]1CO | – | > 100 | –
3 | O=c1[nH]c(=O)n([C@H]2CC[C@@H](CO)O2)cc1Br | – | > 100 | –
4 | O=c1[nH]c(=O)n([C@H]2CC[C@@H](CO)O2)cc1/C=C/Br | – | > 100 | –
5 | Cc1cn([C@H]2C[C@H](O)[C@@H](CN)O2)c(=O)[nH]c1=O | – | > 100 | –
6 | [N-]=[N+]=N[C@H]1C[C@H](n2ccc(N)nc2=O)O[C@@H]1CO | – | 58 | –
7 | O=c1ccn([C@H]2C=C[C@@H](CO)O2)c(=O)[nH]1 | – | > 100 | –
8 | O=c1[nH]c(=O)n([C@H]2CC[C@@H](CO)O2)cc1I | – | > 100 | –
9 | Cc1cn([C@H]2C[C@H](N=[N+]=[N-])[C@@H](CO)O2)c(=O)nc1N | – | > 100 | –
10 | Nc1ccn([C@H]2C=C[C@@H](CO)O2)c(=O)n1 | – | 3.7 | –
11 | Nc1ccn([C@H]2CC[C@@H](CO)O2)c(=O)n1 [ZALCITABINE] | – | 4 | –
12 | Cc1cn([C@H]2CC[C@@H](CO)O2)c(=O)[nH]c1=O | – | > 100 | 50
13 | [N-]=[N+]=N[C@H]1C[C@H](n2cc(I)c(=O)[nH]c2=O)O[C@@H]1CO | – | 3 | –
14 | Cc1cn([C@H]2C[C@H](N=[N+]=[N-])[C@@H](CN=[N+]=[N-])O2)c(=O)[nH]c1=O | – | 17 | –
15 | O=c1ccn([C@H]2CC[C@@H](CO)O2)c(=O)[nH]1 | – | > 100 | –
16 | Cc1cn([C@H]2C[C@H](N=[N+]=[N-])[C@@H](CO)O2)c(=O)[nH]c1=O [ZIDOVUDINE] | 0.23 | 0.02 | –
17 | [N-]=[N+]=N[C@H]1C[C@H](n2cc(F)c(=O)[nH]c2=O)O[C@@H]1CO | – | > 100 | –
18 | [N-]=[N+]=N[C@H]1C[C@H](n2cc(F)c(N)nc2=O)O[C@@H]1CO | – | > 100 | –
19 | Cc1cn([C@H]2C[C@H](N)[C@@H](CO)O2)c(=O)[nH]c1=O [3-AMINO- 3-DEOXYTHYMIDINE] | – | 42 | –
20 | [N-]=[N+]=N[C@H]1C[C@H](n2cc(C(F)(F)F)c(=O)[nH]c2=O)O[C@@H]1CO | – | > 100 | –
21 | Cc1cn([C@H]2C=C[C@@H](CO)O2)c(=O)[nH]c1=O [STAVUDINE] | – | 2.5 | –
22 | [N-]=[N+]=N[C@H]1C[C@H](n2ccc(=O)[nH]c2=O)O[C@@H]1CO [NAVURIDINE] | – | 52 | –
23 | Cc1cn([C@H]2C[C@H](N)[C@@H](CN)O2)c(=O)[nH]c1=O | – | > 100 | –
24 | Cc1cn([C@H]2C[C@H](O)[C@@H](CN=[N+]=[N-])O2)c(=O)[nH]c1=O | – | > 100 | –
